# From patent publication US6653296B1, “Antiretroviral enantiomeric nucleotide analogs” (Institute of Organic Chemistry and Biochemistry of the …, priority 1992, dated 2003)
# Where two headings read alike, the source gives them in different places. Marks after values point to notes of the source that are not given here.
# Key:
# [1] = tested on: Moloney murine sarcoma virus (MSV); assay: MSV-induced transformation of C3H/3T3 cells; type: cell-based; conditions: concentration required to inhibit MSV-induced C3H/3T3 cell transformation by 50%; day 6
# Procedure: The cells were seeded in 1-ml-wells of a 48-well microtiter plate and exposed to 80 PFU (plaque forming units) for 60-90 minutes. Then, the virus was removed and culture medium containing appropriate concentrations of the test compounds were added (1 ml per well). At day 6 post infection, MSV-induced transformation of the cell culture was examined microscopically.
# HIV-1 = HIV-1 induced cytopathicity in MT-4 cells; type: cell-based, human immunodeficiency virus type 1; conditions: for EC50 HIV-1: concentration required to inhibit HIV-induced cytopathicity in MT-4 cells by 50%, 5 days
# Procedure: (§1) The activity of the compounds against HIV-1 and HIV-2 induced cytopathicity was examined in human lymphocyte MT-4 cells. […] The infected cell cultures were then incubated at 37° C. for 5 days in a humidified CO2-controlled incubator. Then, the cytopathicity of the virus was examined by determination of MT-4 cell viability by trypan blue dye staining.
# HIV-2 = HIV-2 induced cytopathicity in MT-4 cells; type: cell-based, human immunodeficiency virus type 2; conditions: for EC50 HIV-2: concentration required to inhibit HIV-induced cytopathicity in MT-4 cells by 50%, 5 days
# Procedure: as §1
# C3H/3T3 cells = assay: Microscopic alteration of C3H/3T3 cell culture morphology; type: cell-based, murine; conditions: concentration that results in a microscopic alteration of the C3H/3T3 cell culture morphology
# [2] = tested on: Moloney murine sarcoma virus (MSV); assay: MSV-induced tumor formation and death in newborn NMRI mice, intraperitoneal administration; type: in vivo; conditions: for Mean day of animal death: observed 20 days
# Procedure: Two gram newborn NMRI mice were injected intramuscularly in the left hind leg with 50 μl of 250-fold diluted stock preparation of Moloney murine sarcoma virus. […] Another group of mice (20 animals) was administered RPMI-1640 medium as placebo. All compounds were solubilized in RPMI-1640 medium. The mice were observed daily for 20 days and the day of tumor initiation and the day of animal death was recorded for each animal. Statistical analyses were performed by calculating the standard deviation.
# MT-4 cells = assay: MT-4 cell viability (trypan blue); type: cell-based, human
# Procedure: The activity of the compounds against HIV-1 and HIV-2 induced cytopathicity was examined in human lymphocyte MT-4 cells. […]. The infected cell cultures were then incubated at 37° C. for 5 days in a humidified CO2-controlled incubator. Then, the cytopathicity of the virus was examined by determination of MT-4 cell viability by trypan blue dye staining. The results are summarized in Table 1 in comparison with the data on the prototype compounds.
# retrovirus = assay: Anti-retrovirus activity in vitro, conclusions on Table 1 (HIV-1, HIV-2, MSV); type: cell-based
# [3] = tested on: Moloney murine sarcoma virus (MSV); assay: MSV-induced tumor formation in NMRI mice, oral administration; type: in vivo
# Procedure: Three-week-old NMRI mice (about 10 grams body weight) were injected intramuscularly in the left hind leg with 50 μl of 20-fold diluted stock preparation of Moloney murine sarcoma virus. Starting 2-4 hours before virus infection, six animals received an orally administered test compound twice a day at 100 mg/kg(total dose) daily for five subsequent days. The control (placebo) group consisted of 14 animals. The experiment was evaluated as described in Example 35.
# herpes viruses = conditions: racemic mixtures, prior art; cited from earlier work
# [4] = twice a day, 100 mg/kg total daily dose for five days
smiles,measurement,setting,value
"CCC(C)Nc1nc(N)nc2c1ncn2C[C@@H](C)OCP(=O)(O)O (stereo partly drawn) [(R)-9-PMP-6-(2-butyl)-DAP, 9-(R)-(2-Phosphonomethoxypropyl)-2-amino-6-(2-butyl)aminopurine]",EC50 MSV,[1],3.5 µg/mL
same,EC50 HIV-1,HIV-1,30 ± 19 µg/mL
same,EC50 HIV-2,HIV-2,25 ± 15 µg/mL
"C[C@H](Cn1cnc2c(NCc3ccccc3)nc(N)nc21)OCP(=O)(O)O [(R)-9-PMP-6-benzyl-DAP, 9-(R)-(2-Phosphonomethoxypropyl)-2-amino-6-benzylaminopurine]",EC50 MSV,[1],0.3 µg/mL
same,EC50 HIV-1,HIV-1,10.3 µg/mL
same,EC50 HIV-2,HIV-2,8 µg/mL
"CCCCNc1nc(N)nc2c1ncn2C[C@@H](C)OCP(=O)(O)O [(R)-9-PMP-6-butyl-DAP, 9-(R)-(2-Phosphonomethoxypropyl)-2-amino-6-butylaminopurine]",EC50 MSV,[1],3.27 µg/mL
same,EC50 HIV-1,HIV-1,13.1 µg/mL
same,EC50 HIV-2,HIV-2,9.8 µg/mL
"C[C@H](Cn1cnc2c(NC3CCCCC3)nc(N)nc21)OCP(=O)(O)O [(R)-9-PMP-6-cyclohexyl-DAP, 9-(R)-(2-Phosphonomethoxypropyl)-2-amino-6-cyclohexylaminopurine]",EC50 HIV-1,HIV-1,8.0 µg/mL
same,EC50 HIV-2,HIV-2,7 µg/mL
"C[C@H](Cn1cnc2c(N(C)C)nc(N)nc21)OCP(=O)(O)O [(R)-9-PMP-6-dimethyl-DAP, 9-(R)-(2-Phosphonomethoxypropyl)-2-amino-6-dimethylaminopurine]",EC50 MSV,[1],3.25 µg/mL
same,EC50 HIV-1,HIV-1,2.3 µg/mL
same,EC50 HIV-2,HIV-2,4.2 µg/mL
"C[C@H](Cn1cnc2c(N3CCOCC3)nc(N)nc21)OCP(=O)(O)O [(R)-9-PMP-6-morpholino-DAP, 9-(R)-(2-Phosphonomethoxypropyl)-2-amino-6-morpholinopurine]",EC50 MSV,[1],6.1 µg/mL
same,EC50 HIV-1,HIV-1,>100 µg/mL
same,EC50 HIV-2,HIV-2,>100 µg/mL
"C[C@H](Cn1cnc2c(N3CCCCC3)nc(N)nc21)OCP(=O)(O)O [(R)-9-PMP-6-piperidino-DAP, 9-(R)-(2-Phosphonomethoxypropyl)-2-amino-6-piperidinopurine]",EC50 MSV,[1],12.6 µg/mL
same,EC50 HIV-1,HIV-1,>100 µg/mL
same,EC50 HIV-2,HIV-2,>100 µg/mL
"C[C@H](Cn1cnc2c(S)nc(N)nc21)OCP(=O)(O)O [(R)-9-PMP-6-thioG, 9-(R)-(2-Phosphonomethoxypropyl)-2-amino-6-thiopurine]",EC50 MSV,[1],3.94 µg/mL
same,EC50 HIV-1,HIV-1,>100 µg/mL
same,EC50 HIV-2,HIV-2,>100 µg/mL
"C[C@H](Cn1cnc2c(S)ncnc21)OCP(=O)(O)O [(R)-9-PMP-6-thioPu, 9-(R)-(2-Phosphonomethoxypropyl)-6-mercaptopurine]",EC50 MSV,[1],18 µg/mL
same,EC50 HIV-1,HIV-1,>100 µg/mL
same,EC50 HIV-2,HIV-2,>100 µg/mL
"C[C@H](Cn1nnc2c(N)ncnc21)OCP(=O)(O)O [(R)-9-PMP-8-azaA, 9-(R)-(2-Phosphonomethoxypropyl)-8-azaadenine]",EC50 MSV,[1],0.43 µg/mL
same,EC50 HIV-1,HIV-1,2.42 µg/mL
same,EC50 HIV-2,HIV-2,1.75 µg/mL
"Nc1ncnc2c1ncn2C[C@H](CF)OCP(=O)(O)O [(R)-FPMPA, reference compound]",MIC,C3H/3T3 cells,>100 µg/mL
same,Mean day of animal death,[2]; single i.p. dose 20 mg/kg,10.4 ± 0.52 days
same,Mean day of animal death,[2]; single i.p. dose 50 mg/kg,11.2 ± 0.92 days
"Nc1nc(N)c2ncn(C[C@H](CF)OCP(=O)(O)O)c2n1 [(R)-FPMPDAP, reference compound]",MIC,C3H/3T3 cells,>100 µg/mL
same,Mean day of animal death,[2]; single i.p. dose 10 mg/kg,12.0 ± 1.0 days
same,Mean day of animal death,[2]; single i.p. dose 25 mg/kg,14.1 ± 1.5 days
same,Mean day of animal death,[2]; single i.p. dose 50 mg/kg,13.9 ± 1.4 days
"C[C@H](Cn1cnc2c(N)ncnc21)OCP(=O)(O)O [(R)-PMPA, 9-(R)-(2-Phosphonomethoxypropyl)adenine]",MIC,C3H/3T3 cells,>100 µg/mL
same,inhibiting tumor initiation and prolonging the life-span of MSV-infected mice (in words),[2]; i.p.,highly effective
same,Mean day of animal death,[2]; single i.p. dose 2 mg/kg,12.6 ± 1.26 days
same,Mean day of animal death,[2]; single i.p. dose 5 mg/kg,14.4 ± 0.47 days
same,Mean day of animal death,[2]; single i.p. dose 10 mg/kg,18.3 ± 1.10 days
same,percentage of MSV-infected mice still alive at day 20 post infection,[2]; single i.p. dose 20 mg/kg,100%
same,Mean day of animal death,[2]; single i.p. dose 20 mg/kg,> 20 days
same,percentage of MSV-infected mice still alive at day 20 post infection,[2]; single i.p. dose 50 mg/kg,100%
same,Mean day of animal death,[2]; single i.p. dose 50 mg/kg,> 20 days
same,protection against MSV-induced tumor development (in words),[2]; single i.p. dose of 50 mg/kg,full protection
same,increasing the mean day of tumor initiation and animal death (in words),[2]; single i.p. dose of 10-50 mg/kg,markedly effective
same,toxicity to the cells,MT-4 cells,non-toxic
same,concentration markedly inhibitory to retrovirus replication,"retrovirus; in vitro, summary of Table 1",1 to 2 µg/mL
"C[C@H](Cn1cnc2c(N)nc(N)nc21)OCP(=O)(O)O [(R)-PMPDAP, 9-(R)-(2-Phosphonomethoxypropyl)-2,6-diaminopurine]",increase of the mean day of tumor initiation,[3]; 100 mg/kg/day,50%
same,Mean day of tumor initiation,[3]; [4],7.5 ± 1.0*^) day
same,Number of mice developing tumor (%),[3]; [4],67%
same,MIC,C3H/3T3 cells,>100 µg/mL
same,in vivo anti-MSV activity relative to (R)-PMPA,[2]; i.p.,five-fold superior over (R)-PMPA
same,inhibiting tumor initiation and prolonging the life-span of MSV-infected mice (in words),[2]; i.p.,highly effective
same,percentage of MSV-infected mice still alive at day 20 post infection,[2]; single i.p. dose 2 mg/kg,70%
same,percentage of MSV-infected mice without tumor at day 20 post infection,[2]; single i.p. dose 2 mg/kg,36%
same,Mean day of animal death,[2]; single i.p. dose 2 mg/kg,15 days
same,percentage of MSV-infected mice still alive at day 20 post infection,[2]; single i.p. dose 5 mg/kg,90%
same,Mean day of animal death,[2]; single i.p. dose 5 mg/kg,16.5 days
same,percentage of MSV-infected mice still alive at day 20 post infection,[2]; single i.p. dose 10 mg/kg,90%
same,Mean day of animal death,[2]; single i.p. dose 10 mg/kg,18.5 days
same,percentage of MSV-infected mice still alive at day 20 post infection,[2]; single i.p. dose 20 mg/kg,95%
same,Mean day of animal death,[2]; single i.p. dose 20 mg/kg,18 days
same,protection of the animals against MSV-induced tumor development,[2]; single i.p. dose of 10-20 mg/kg,90-95%
same,toxicity to the cells,MT-4 cells; at 100 μg/ml,non-toxic
same,selectivity index (ratio cytotoxic dose/antivirally active dose) for HIV-1,HIV-1; MT-4 cells,> 2 000
same,selectivity index (ratio cytotoxic dose/antivirally active dose) for HIV-2,HIV-2; MT-4 cells,> 2 000
"C[C@H](Cn1cnc2c(=O)[nH]c(N)nc21)OCP(=O)(O)O [(R)-PMPG, 9-(R)-(2-phosphonomethoxypropyl)guanine]",MIC,C3H/3T3 cells,40 µg/mL
"Nc1ncnc2c1ncn2C[C@@H](CF)OCP(=O)(O)O [(S)-FPMPA, reference compound]",MIC,C3H/3T3 cells,>100 µg/mL
same,Mean day of animal death,[2]; single i.p. dose 10 mg/kg,13.6 ± 2.8 days
same,Mean day of animal death,[2]; single i.p. dose 20 mg/kg,17.2 ± 2.2 days
same,percentage of MSV-infected mice still alive at day 20 post infection,[2]; single i.p. dose 50 mg/kg,100%
same,Mean day of animal death,[2]; single i.p. dose 50 mg/kg,> 20 days
"Nc1nc(N)c2ncn(C[C@@H](CF)OCP(=O)(O)O)c2n1 [(S)-FPMPDAP, reference compound]",MIC,C3H/3T3 cells,>100 µg/mL
same,Mean day of animal death,[2]; single i.p. dose 10 mg/kg,16.7 ± 3.2 days
same,Mean day of animal death,[2]; single i.p. dose 25 mg/kg,14.6 ± 2.2 days
same,Mean day of animal death,[2]; single i.p. dose 50 mg/kg,16.5 ± 0.71 days
"C[C@@H](Cn1cnc2c(N)ncnc21)OCP(=O)(O)O [(S)-PMPA, 9-(S)-(2-Phosphonomethoxypropyl)adenine]",MIC,C3H/3T3 cells,>100 µg/mL
same,antiretroviral activity in vivo (in words),[2]; i.p. dose of 50 mg/kg,no marked antiretroviral activity
same,Mean day of animal death,[2]; single i.p. dose 10 mg/kg,10.9 ± 0.88 days
same,Mean day of animal death,[2]; single i.p. dose 20 mg/kg,10.9 ± 0.88 days
same,Mean day of animal death,[2]; single i.p. dose 50 mg/kg,12.4 ± 0.84 days
same,antiretroviral activity in vitro (in words),retrovirus,devoid of marked antiretroviral activity
"C[C@@H](Cn1cnc2c(N)nc(N)nc21)OCP(=O)(O)O [(S)-PMPDAP, 9-(S)-(2-phosphonomethoxypropyl)-2,6-diaminopurine]",MIC,C3H/3T3 cells,>100 µg/mL
"C[C@@H](Cn1cnc2c(=O)[nH]c(N)nc21)OCP(=O)(O)O [(S)-PMPG, 9-(S)-(2-Phosphonomethoxypropyl)guanine]",MIC,C3H/3T3 cells,8 µg/mL
"Nc1ncnc2c1ncn2CCOCP(=O)(O)O [PMEA, reference compound]",MIC,C3H/3T3 cells,>100 µg/mL
CC(Cn1cnc2c(=O)[nH]c(N)nc21)OCP(=O)(O)O (stereo not shown) [PMPG],antiherpetic effect (in words),herpes viruses,due to its substantial cytotoxicity
